Earlier results, collected in US20200069618A1, “COMPOSITIONS HAVING AN AGENT AND AN ENHANCER THEREOF, METHODS OF USE, AND DELIVERY SYSTEMS” (priority 2018, published 2020).

Assays:
[1] = system: rats; settings: administration into the basal forebrain
[2] = system: rats; settings: intercerebroventricular administration

## CCCCC/C=C\C/C=C\C/C=C\C/C=C\CCCC(=O)NCCO [anandamide, Anandamide]
[1]
  levels of adenosine: increase levels of adenosine
[2]
  slow-wave sleep and REM sleep: increase slow-wave sleep and REM sleep
  wakefulness: decrease wakefulness
